Data on three molecules can be found in patent US8784929B2 (priority 2007, dated 2014).

Test [1] has as its target T1, αHL-WT (Staphylococcus aureus, UniProt P09616). The class given is biochemical, staphylococcal. The note with it: pH 7.
Test [2] deals with T1, αHL-WT. The note with it: cited from earlier work.

T1 sequence (P09616 27-319 limits assumed): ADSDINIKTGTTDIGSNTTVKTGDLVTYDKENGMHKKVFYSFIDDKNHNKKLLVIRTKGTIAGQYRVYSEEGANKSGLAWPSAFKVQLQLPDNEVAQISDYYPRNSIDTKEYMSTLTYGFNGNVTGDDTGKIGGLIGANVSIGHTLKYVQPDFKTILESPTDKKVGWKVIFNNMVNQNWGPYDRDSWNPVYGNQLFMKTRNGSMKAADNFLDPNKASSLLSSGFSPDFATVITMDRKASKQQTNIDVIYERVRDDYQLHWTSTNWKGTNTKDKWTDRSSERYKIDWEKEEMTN

Turning to `OC[C@H]1O[C@@H]2O[C@H]3[C@H](O)[C@@H](O)[C@@H](O[C@H]4[C@H](O)[C@@H](O)[C@@H](O[C@H]5[C@H](O)[C@@H](O)[C@@H](O[C@H]6[C@H](O)[C@@H](O)[C@@H](O[C@H]7[C@H](O)[C@@H](O)[C@@H](O[C@H]8[C@H](O)[C@@H](O)[C@@H](O[C@H]9[C@H](O)[C@@H](O)[C@@H](O[C@H]1[C@H](O)[C@H]2O)O[C@@H]9CO)O[C@@H]8CO)O[C@@H]7CO)O[C@@H]6CO)O[C@@H]5CO)O[C@@H]4CO)O[C@@H]3CO` [γCD, γ-cyclodextrin], at αHL-WT [1], the “current block on binding to αHL-WT” value came to 68%.
As to `OC[C@H]1O[C@@H]2O[C@H]3[C@H](O)[C@@H](O)[C@@H](O[C@H]4[C@H](O)[C@@H](O)[C@@H](O[C@H]5[C@H](O)[C@@H](O)[C@@H](O[C@H]6[C@H](O)[C@@H](O)[C@@H](O[C@H]7[C@H](O)[C@@H](O)[C@@H](O[C@H]8[C@H](O)[C@@H](O)[C@@H](O[C@H]1[C@H](O)[C@H]2O)O[C@@H]8CO)O[C@@H]7CO)O[C@@H]6CO)O[C@@H]5CO)O[C@@H]4CO)O[C@@H]3CO` [β-cyclodextrin], the “binding of β-cyclodextrin (in words)” value on αHL-WT [2] is “does not bind β-cyclodextrin strongly”.
On to `COC[C@H]1O[C@@H]2O[C@H]3[C@H](OC)[C@@H](OC)[C@@H](O[C@H]4[C@H](OC)[C@@H](OC)[C@@H](O[C@H]5[C@H](OC)[C@@H](OC)[C@@H](O[C@H]6[C@H](OC)[C@@H](OC)[C@@H](O[C@H]7[C@H](OC)[C@@H](OC)[C@@H](O[C@H]8[C@H](OC)[C@@H](OC)[C@@H](O[C@H]1[C@H](OC)[C@H]2OC)O[C@@H]8COC)O[C@@H]7COC)O[C@@H]6COC)O[C@@H]5COC)O[C@@H]4COC)O[C@@H]3COC` [hβCD, heptakis(2,3,6-tri-O-methyl)-β-cyclodextrin], for which, at αHL-WT [1], the “current block on binding to αHL-WT” value is 95%.
